Read-outs that look alike come from different tables or passages of the source.
Tests used:
[1] = tested on: Sprague-Dawley albino rats, light-induced photoreceptor cell death; assay type: in vivo
Protocol: The aim of this study was to investigate the dose effect of XG-102 on light-induced photoreceptor cell death.
Test item (XG-102: 30 mg/ml, 3 mg/ml, and 0.3 mg/ml) and vehicle (0.9% NaCl) were administered by intravitreal injection in right eyes the day before induction. The reference (Phenyl-N-test-Butylnitrone (PBN) (50 mg/kg)) and vehicle were intraperitoneally injected 30 min before induction then, 3 times during 12 hours of light exposition, then once after induction. Animals were placed in constant light (7000 lux) for 24 h. Electroretinograms (ERG) were recorded before light treatment and on days 9, 16 and 23 after induction. Eyes were then taken for histology and outer nuclear layer (ONL) thickness assessment. The table below summarizes the allocation of animals in treatment groups:
For the intravitreal injection animals were anesthetized by intramuscular injection of a mixture of xylazine/ketamine. Test item (5 μl) and vehicle (5 μl) were injected in the right eye. The injection was performed under an operating microscope in the supratemporal area at pars plana using a 33G-needle mounted on a 50 μl Hamilton. The filled syringe was mounted into the UltraMicroPump III to achieve accurate injection in microliter range. Reference and vehicle were injected intraperitoneally at a dose volume of 2.5 ml/kg using a 30G-needle mounted on a 1 ml-syringe.
Light Exposure: The rats that had been dark-adapted overnight were exposed for 24 hours to a continuous white fluorescent light (7000 lx) in clear plastic cages. Each cage contained one rat. After exposure, the rats returned to rearing cyclic light conditions.
ERG was recorded before induction and 7, 14 and 21 days after cessation of exposure (Days 9, 16 and 23) on right eyes of dark-adapted and anesthezied animals. The latency times (for a- and b-wave) and the a-wave and b-wave amplitudes were measured for each ERG; the latency times were expressed as millisecond and the a-wave and b-wave as a percentage of the baseline value obtained before light exposure. 15 min before measurement 10 μl Mydriaticum® (0.5% tropicamide) were instilled for pupillary dilatation.
Measurement of the ONL Thickness: After ERG testing, animal was euthanized by an overdose of pentobarbital and the right eyes were enucleated, fixed and embedded in paraffin. Sections (5 μm thick) were performed along the vertical meridian and stained with Trichrome-Masson. The vertical meridian included the optic nerve.

[2] = Phase I pharmacokinetics, single intravenous infusion; details: human, in vivo
Protocol: The primary objective of the study was to assess the safety and tolerability of XG-102 following intravenous (iv) infusion of single escalating doses of XG-102 to healthy male volunteers. The secondary objective of the study was to assess the pharmacokinetics of XG-102 following iv infusion of single escalating doses of XG-102 to healthy male volunteers. Doses were administered as a 60 minute iv infusion. For control purposes, placebo iv infusion was administered to control subjects. This was a single-centre, randomized, double blind, placebo controlled, ascending single dose, sequential group study. […] Screening was performed in the 3-week period prior to dosing. Dosing occurred on Day 0 for each subject. […] Data for all subjects were included in the safety analyses; data for all subjects who received XG-102 were included in the pharmacokinetic analyses.

db/db mice = details: mouse, in vivo, sc, 10 mg/kg
Text: i) Animals • A total of twenty (20) male db/db mice (8 weeks old) were obtained from Charles River (Germany). Upon arrival, animals were group housed (n=6-7/group) and offered regular rodent chow (Altromin standard #1324 chow; C. Petersen, Ringsted, Denmark) and water ad libitum unless otherwise stated. The mice were housed under a 12:12 L/D cycle (lights on at 4:00 and lights off at 16:00) and in temperature and humidity controlled rooms.
ii) Groups and Randomization • On day −4, mice were randomized according to blood glucose level (fasted; blood glucose measured on Biosen S line analyzer (EKF diagnostic, Germany) to participate in one of the following drug treatment groups (n=6): • 1) Vehicle control, S.C. (physiological saline) • 2) XG-102 (SEQ ID NO: 11); 1 mg/kg; s.c. • 3) XG-102 (SEQ ID NO: 11); 10 mg/kg; s.c • All doses listed were calculated for the free-base. […] All compounds were administered sub-cutaneously (s.c.) in a volume of 3 ml/kg. The formulation instructions for vehicle control and XG-102 (SEQ ID NO: 11) were as follows: • First, XG-102 (SEQ ID NO: 11) was dissolved in the vehicle. […]
i) Blood Glucose • Blood glucose was measured from 7 hour fasted animals 6 hours post dosing by collection of 10 μl blood samples from the tail-vein in hematocrite tubes and subsequent analysis on a Biosen s-line analyzer (EKE-diagnostic; Germany).

[3] = tested on: Primary cultured macrophages; assay type: cell-based
Protocol: FIG. 24 Primary cultured macrophages were incubated with XG-102 (SEQ ID NO: 11) and extensively washed.

[4] = Phase II trial, safety and tolerability (adverse events)
Protocol: The criteria for evaluation of safety were:
An AE is therefore any unfavorable and unintended sign, symptom or disease temporally associated with the use of a medicinal product, whether or not considered related to the medicinal product.
Patients were analyzed as treated, i.e. according to the treatment which they received. The safety set was the primary analysis set for the safety analysis.
The present study was a double-blind study. All patients who were randomized and for whom the sub-conjunctival injection was started are included in the safety analysis by dose group. […] If the study treatment eye drops were stopped prematurely (i.e. before day 21), the patients concerned continued follow-up until day 28, in accordance with the study protocol.
Investigators assessed (in a blinded manner) the relationship of each reported AE to any of the study treatments. An event was considered to be related to study treatment if the Investigator ticked either ‘possible’ or ‘probable’ as the reply to this question.

CC(C)C[C@@H](NC(=O)[C@@H](Cc1ccccc1)NC(=O)[C@H]1CCCN1C(=O)[C@@H](CCC(N)=O)NC(=O)[C@H](NC(=O)[C@H]1CCCN1C(=O)[C@@H](CCCNC(=N)N)NC(=O)[C@@H](CO)NC(=O)[C@@H](CCC(N)=O)NC(=O)[C@H](N)CC(=O)O)C(C)C)C(=O)N[C@H](CC(N)=O)C(=O)N[C@H](CC(C)C)C(=O)N[C@@H](C(=O)N[C@@H](C(=O)N1CCC[C@@H]1C(=O)N[C@H](CCCNC(=N)N)C(=O)N[C@H](CCCCN)C(=O)N1CCC[C@@H]1C(=O)N[C@H](CCCNC(=N)N)C(=O)N1CCC[C@@H]1C(=O)N1CCC[C@@H]1C(=O)N[C@H](CCCNC(=N)N)C(=O)N[C@H](CCCNC(=N)N)C(=O)N[C@H](CCCNC(=N)N)C(=O)N[C@H](CCC(N)=O)C(=O)N[C@H](CCCNC(=N)N)C(=O)N[C@H](CCCNC(=N)N)C(=O)N[C@H](CCCCN)C(=O)N[C@H](CCCCN)C(=O)N[C@H](CCCNC(=N)N)C(=O)NCC(=O)O)[C@H](C)O)[C@H](C)O [XG-102]
ERG A-wave amplitude, percent of the baseline, Mean ± SD ([1]; XG-102 ivt 15 μg/eye, Day 23): 41.8 ± 23.6% | ERG B-wave amplitude, percent of the baseline, Mean ± SD ([1]; XG-102 ivt 15 μg/eye, Day 23): 56.5 ± 29.8% | ERG A-wave amplitude, percent of the baseline, Mean ± SD ([1]; XG-102 ivt 150 μg/eye, Day 9): 23.6 ± 25.3% | ERG B-wave amplitude, percent of the baseline, Mean ± SD ([1]; XG-102 ivt 150 μg/eye, Day 9): 31.9 ± 42.6% | ERG A-wave amplitude, percent of the baseline, Mean ± SD ([1]; XG-102 ivt 150 μg/eye, Day 16): 24.1 ± 28.1% | ERG B-wave amplitude, percent of the baseline, Mean ± SD ([1]; XG-102 ivt 150 μg/eye, Day 16): 38.9 ± 51.5% | ERG A-wave amplitude, percent of the baseline, Mean ± SD ([1]; XG-102 ivt 150 μg/eye, Day 23): 23.7 ± 27.2% | ERG B-wave amplitude, percent of the baseline, Mean ± SD ([1]; XG-102 ivt 150 μg/eye, Day 23): 37.1 ± 54.4% | AUCextrap ([2]; 10 ug/kg): 34.1% | AUCextrap ([2]; 40 ug/kg): 6.7% | AUCextrap ([2]; 80 ug/kg): 2.9% | reaction at s.c. injection site (db/db mice): nodular fibrosis was observed in the subcutaneous tissue | incorporation into primary macrophages [3]: strongly incorporated into primary macrophages | patients with Intraocular pressure increased ([4]; XG-102 90 μg): 23% | percentage of patients who experienced an AE within 24 hours ([4]; XG-102 90 μg): 34% | overall tolerability ([4]; XG-102 90 μg and 900 μg): well tolerated in patients who underwent complex ocular surgery | Adverse events which led to an interruption of study treatment ([4]; XG-102 90 μg dose group): 11 (14.1%) number of events (%) | patients with Intraocular pressure increased ([4]; XG-102 900 μg): 10% | percentage of patients who experienced an AE within 24 hours ([4]; XG-102 900 μg): 27% | Adverse events which led to an interruption of study treatment ([4]; XG-102 900 μg dose group): 8 (11.6%) number of events (%)

From patent US10624948B2, “Use of cell-permeable peptide inhibitors of the JNK signal transduction pathway for the treatment of various diseases” (Xigen Inflammation Ltd., priority 2013, dated 2020)
